The target of test [1] is T1, AP-1 complex (Fos/Jun peptide) (Homo sapiens, UniProt P01100+P05412).
T1 construct: made in house; host or cells: chemical peptide synthesis (no expression host)
Briefly: Effect on AP-1 binding activity to AP-1 recognition sequence (ELISA). The conditions noted are these: inhibition of binding of digoxigenin-labeled AP-1 binding sequence oligonucleotide to Fos/Jun peptide, absorbance 492 nm, read-out: Concentration (μM) at 50% inhibition. On the procedure:
Test Example 1 Effect on AP-1 Binding Activity to AP-1 Recognition Sequence (ELISA)
Jun peptide and Fos peptide with its N-terminal labeled with biotin via 4 glycine residues containing a DNA binding site [Nature, Vol. 373, 1995, 257-261] were synthesized. Each of the peptides was dissolved in Tris buffer [20 mM Tris-hydrochloric acid (pH 7.5), 50 mM potassium chloride, 1 mM ethylenediaminetetraacetic acid, 10 mM magnesium chloride, 1 mM dithiothreitol, 0.5 M guanidinohydrochloric acid, 30% glycerol], and equimolar amounts of the peptide solutions were mixed with each other to be used as an AP-1 complex (Fos/Jun peptide). The AP-1 complex was added onto a 96-well avidin-coated ELISA plate (10 pmol/well). The plate was washed, blocked by bovine serum albumin, and used for binding assay.
Digoxigenin-labeled double-stranded oligonucleotide (22mer) that contained AP-1 binding sequence (3′-TGAGTCA-5′) synthesized by conventional procedure was reacted in binding reaction solution [25 mM tris-hydrochloric acid (pH 7.9), 0.5 mM ethylenediaminetetraacetic acid, 0.05% Nonidet P-40, 10% glycerol] for 30 minutes at room temperature in the presence or absence of samples. After the reaction, unbound labeled oligonucleotide was removed by washing with HEPES buffer containing 0.05% Tween-20. Then peroxidase-labeled anti-digoxigenin antibody was added to react with the labeled oligonucleotide bound to AP-1. After removing excess antibody by washing with HEPES buffer containing 0.05% Tween-20, incubation was conducted for a certain period with o-phenylene diamine as a substrate in 100 mM citric acid buffer (pH 5.0) containing hydrogen peroxide, sulfuric acid solution was added to each well, and the absorbance (492 nm) was measured. Inhibition rate of each sample was calculated from the absorbance obtained in the binding assay carried out in the presence of the sample, taking the absorbance obtained in the absence of the sample=100%.
A general note: In an ELISA, binding on a coated surface is turned into a signal by an enzyme label.

The subject of test [2] is Male DBA/1J mice. Briefly: Type II collagen-induced arthritis in mouse. The conditions noted are these: 10 mg/kg orally once a day from 21 to 35 days after the initial inoculation, vs control group; for Bone destruction inhibition rate: X-ray bone destruction score 36 days after initial inoculation; for Arthritis inhibition rate: arthritis score on 36 days after initial inoculation. Format: in vivo. On the procedure: Test Example 2 Type II Collagen-Induced Arthritis in Mouse
Male DBA/1J mice aged 8 weeks (Charles River Japan) were used. To a solution of 2 mg/mL bovine type II collagen in 0.1 mol/L acetic acid (Koken), an […] of Freund's complete adjuvant (DIFCO) was added to prepare an emulsion, and 0.2 ml of the emulsion was subcutaneously injected in the tail root region of each mouse. The same treatment was given 21 days after the initial inoculation to induce arthritis in the mice. Test compounds were each suspended in 0.5% methylcellulose solution, and 10 mg/kg of each test compound was given orally to mice once a day from 21 to 35 days after the initial inoculation. To a control group (a negative control group), 0.5% methylcellulose solution was given in the same manner.
Taking the maximum score as 12, the arthritis score was calculated to evaluate the severity of arthritis that was evaluated in the following manner: score 0: no change; score 1: swelling on one or two toes, or slight swelling in the carpal and tarsal joints; score 2: swelling and rubor in more joints; score 3: extensive swelling over whole foreleg or hindleg; and total of the four legs was calculated.
X-ray photographs of four paws were taken 36 days after the initial inoculation, and the severity of bone destruction was evaluated as bone destruction score on a maximum scale, the sum of the points for extremities, of 105 points: 0 or 0.5 points in accordance with presence or absence of osteoporosis in the joints and their vicinity, and for bone erosion, no change at 0 point; “partial bone destruction” at 1 point and “complete bone destruction” at 2 points in the second to fifth interdigital joints, the first to fifth metacarpal and metatarsal joints, and carpal, tarsal and calcaneal regions. Inhibition rate was calculated using the following equation: Inhibition rate(%)=100−(score of the group given the test compound/score of the control group)×100

T1 sequence (P01100 137-200 limits assumed): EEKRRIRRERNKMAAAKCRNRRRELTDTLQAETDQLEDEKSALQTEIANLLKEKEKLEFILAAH
T1 sequence (P05412 252-315 limits assumed): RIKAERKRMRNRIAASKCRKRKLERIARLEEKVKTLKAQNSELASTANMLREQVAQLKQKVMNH

As to `O=C(O)CCc1cc(C(=O)c2ccc(OC3CCCC3)cc2O)ccc1OCc1ccc(C(=O)O)cc1O` [32(1), 4-({2-(2-carboxyethyl)-4-[4-(cyclopentyloxy)-2-hydroxybenzoyl]phenoxy}methyl)-3-hydroxybenzoic acid], the IC50 in test [1] was found to be 310 µM. On the same count and under the same terms, under `O=C(O)CCc1ccc(COc2ccc(C(=O)c3ccc(OC4CCCC4)cc3O)cc2CCC(=O)O)cc1` [49(1)] stands 330 µM; under `Cc1cc(C(=O)O)ccc1COc1ccc(C(=O)c2ccc(OC3CCCC3)cc2O)cc1CCC(=O)O` [49(3)], 240 µM; under `CC(C)COc1ccc(C(=O)c2ccc(OCc3ccc(C(=O)NS(C)(=O)=O)cc3)c(CCC(=O)O)c2)c(O)c1` [49(8)], 320 µM. Still for that read-out and setting: under `CC(C)COc1ccc(C(=O)c2ccc(OCc3ccc(C(=O)O)cc3)c(CCC(=O)O)c2)c(OCC(C)C)c1` [49(9)] stands 490 µM; under `COc1cc(COc2ccc(C(=O)c3ccc(OC4CCCC4)cc3O)cc2CCC(=O)O)ccc1CCC(=O)O` [49(11)], 390 µM. Take `CC(Oc1ccc(C(=O)c2ccc(OC3CCCC3)cc2O)cc1CCC(=O)O)c1ccc(C(=O)O)cc1` (centres unmarked) [49(12)]: in test [2], the “Bone destruction inhibition rate” value worked out at 76% and the Arthritis inhibition rate was found to be 50%. In addition, the IC50 in test [1] was found to be 700 µM.

In the case of `O=C(O)CCc1cc(C(=O)c2ccc(-c3cccs3)cc2O)ccc1OCc1ccc(C(=O)O)cc1` [49(16)], the IC50 in test [1] is 380 µM.

As for `CC(C)(C)COc1ccc(C(=O)c2ccc(OCc3ccc(C(=O)O)cc3)c(CCC(=O)O)c2)c(O)c1` [49(19)], the IC50 in test [1] is 280 µM.

For `O=C(O)CCc1cc(C(=O)c2ccc(OC3CCCCC3)cc2O)ccc1OCc1ccc(C(=O)O)cc1` [49(20)], the IC50 in test [1] came to 320 µM. With `O=C(O)CCc1cc(C(=O)c2ccc(CC3CCCC3)cc2O)ccc1OCc1ccc(C(=O)O)cc1` [49(22)], in test [1], the IC50 was determined as 200 µM. `O=C(O)CCc1cc(C(=O)c2ccc(OCC3CCCC3)cc2O)ccc1OCc1ccc(C(=O)O)cc1` [49(29)]: the IC50 in test [1] is 220 µM. Regarding `O=C(O)CCc1cc(C(=O)c2ccc(C3CCCC3)cc2O)ccc1OCc1ccc(C(=O)O)cc1` [49(39)], the IC50 in test [1] is 360 µM. The same measure, in the same setting: under `O=C(O)CCc1cc(C(=O)c2ccc(OCc3ccco3)cc2O)ccc1OCc1ccc(C(=O)O)cc1` [49(40)] stands 280 µM. On the same count and under the same terms, under `CC(C)COc1cc(COc2ccc(C(=O)c3ccc(OC4CCCC4)cc3O)cc2CCC(=O)O)ccc1C(=O)O` [49(46)] stands 320 µM; under `CC(C)COc1ccc(C(=O)c2ccc(OCc3ccc(C(=O)O)cc3)c(CCC(=O)O)c2)c(O)c1` [49(47)], 460 µM. On the same count and under the same terms, under `CC(C)COc1ccc(C(=O)c2ccc(OCc3ccc(C(=O)NO)cc3)c(CCC(=O)O)c2)c(O)c1` [49(48)] stands 310 µM; under `O=C(O)CCc1cc(C(=O)c2ccc(OC3CCCC3)cc2O)ccc1OCc1ccc(C(=O)O)cc1F` [49(51)], 300 µM; under `O=C(O)CCc1cc(C(=O)c2ccc(OC3CCCC3)cc2O)ccc1OCc1ccc(S(=O)(=O)O)cc1` [49(54)], 270 µM. Regarding `O=C(O)CCc1cc(C(=O)c2ccc(OCC3CCCCC3)cc2O)ccc1OCc1ccc(C(=O)O)cc1` [49(56)], the IC50 in test [1] stood at 130 µM.

On to `O=C(O)CCc1cc(C(=O)c2ccc(OC3CCCCCC3)cc2O)ccc1OCc1ccc(C(=O)O)cc1` [49(58)], for which, in test [1], the IC50 was 190 µM. The same measure, in the same setting: under `CS(=O)(=O)NC(=O)c1ccc(COc2ccc(C(=O)c3ccc(OC4CCCC4)cc3O)cc2CCC(=O)O)cc1` [49(62)] stands 580 µM. Same read-out and setting: under `O=C(O)CCc1cc(C(=O)c2ccc(OC3CCCC3)cc2O)ccc1OCc1ccc2[nH]c(=O)[nH]c(=O)c2c1` [49(70)] stands 180 µM; under `CN1CCN(c2ccc(COc3ccc(C(=O)c4ccc(OC5CCCC5)cc4O)cc3CCC(=O)O)cc2)C(=O)C1=O` [49(76)], 380 µM. Consider `O=C(O)CCc1cc(C(=O)c2ccc(OC3CCCC3)cc2O)ccc1OCc1nc2cc(C(=O)O)ccc2s1` [49(77)], for which the IC50 in test [1] is 380 µM. Consider `CCOC(=O)c1ccc(COc2ccc(C(=O)c3ccc(OC4CCCC4)cc3O)cc2CCC(=O)O)cc1OC` [54(2), 3-(5-[4-(cyclopentyloxy)-2-hydroxybenzoyl]-2-{[4-(ethoxycarbonyl)-3-methoxybenzyl]oxy}phenyl) propanoic acid], for which, in test [2], the “Bone destruction inhibition rate” value is 78% and the Arthritis inhibition rate worked out at 65%. With `CCOC(=O)CCc1cc(C(=O)c2ccc(OCC(C)C)cc2O)ccc1OCc1ccc(C(=O)O)cc1` [72(1), 4-{[2-(3-ethoxy-3-oxopropyl)-4-(2-hydroxy-4-isobutoxybenzoyl)phenoxy]methyl} benzoic acid], in test [1], the IC50 came out at 240 µM. `O=C(O)CCc1cc(C(=O)c2ccc(OC3CCCC3)cc2O)ccc1OCc1ccc2c(O)noc2c1` [Example 35, 3-{5-[4-(cyclopentyloxy)-2-hydroxybenzoyl]-2-[(3-hydroxyl-1,2-benzisoxazol-6-yl)methoxy]phenyl}propanoic acid]: in test [2], the “Bone destruction inhibition rate” value was found to be 92% and the Arthritis inhibition rate turned out to be 76%. Further, in test [1], the IC50 amounted to 290 µM.

With `O=C(O)CCc1cc(C(=O)c2ccc(OC3CCCC3)cc2O)ccc1OCc1ccc(C(=O)O)cc1` [Example 44, 4-({2-(2-carboxyethyl)-4-[4-(cyclopentyloxy)-2-hydroxybenzoyl]phenoxy}methyl) benzoic acid], the IC50 in test [1] was 420 µM. Consider `O=C(O)CCc1cc(C(=O)c2ccc(OC3CCCC3)cc2O)ccc1OCc1csc2c(C(=O)O)cccc12` [Example 45, 3-({2-(2-carboxyethyl)-4-[4-(cyclopentyloxy)-2-hydroxybenzoyl]phenoxy}methyl)-1-benzothiophene-7-carboxilic acid], for which, in test [2], the “Bone destruction inhibition rate” value came to 81% and the Arthritis inhibition rate is reported as 55%. The IC50 in test [1] turned out to be 140 µM.

For the compound `O=C(O)/C=C/c1ccc(COc2ccc(C(=O)c3ccc(OC4CCCC4)cc3O)cc2CCC(=O)O)cc1` [Example 46, (E)-3-(4-{[4-[4-(cyclopentyloxy)-2-hydroxybenzoyl]-2-(3-hydroxy-3-oxopropyl)phenoxy]methyl}phenyl)-2-propenoic acid], the IC50 in test [1] was 330 µM. Still for that read-out and setting: under `O=C(O)CCc1cc(C(=O)c2ccc(OC3CCCC3)cc2O)ccc1OCc1ccc(-c2cc(O)no2)cc1` [Example 47, 3-(5-[4-(cyclopentyloxy)-2-hydroxybenzoyl]-2-{[4-(3-hydroxy-5-isoxazolyl)benzyl]oxy}phenyl) propanoic acid] stands 170 µM. In the case of `COc1cc(COc2ccc(C(=O)c3ccc(OC4CCCC4)cc3O)cc2CCC(=O)O)ccc1C(=O)O` [Example 48, 4-({2-(2-carboxyethyl)-4-[4-(cyclopentyloxy)-2-hydroxybenzoyl]phenoxy}methyl)-2-methoxybenzoic acid], in test [2], the “Bone destruction inhibition rate” value is 64% and the Arthritis inhibition rate amounted to 57%. Also, the IC50 in test [1] came to 700 µM. In the case of `O=C(CCc1cc(C(=O)c2ccc(OC3CCCC3)cc2O)ccc1OCc1ccc2c(O)noc2c1)OCCN1CCOCC1` [Example 76, 2-(4-morpholinyl) ethyl 3-{5-[4-(cyclopentyloxy)-2-hydroxybenzoyl]-2-[(3-hydroxy-1,2-benzisoxazol-6-yl)methoxy]phenyl} propanoate], in test [2], the “Bone destruction inhibition rate” value was determined as 99% and the Arthritis inhibition rate is 90%.
